Columns and labels:
Format in all cases: cell-based
[1] = target: T1, RAR ALPHA (Homo sapiens, UniProt P10276); test: Transactivation test (luciferase reporter, HeLa stable transfectants), RAR alpha; settings: HeLa cells; for Kd: apparent Kd from Schild regression of crossed curves against reference agonist, read-out: RAR ALPHA Kd app; for IC50: inhibition at the reference agonist concentration that gives 80% activation
T1 sequence (P10276 183-417 limits assumed): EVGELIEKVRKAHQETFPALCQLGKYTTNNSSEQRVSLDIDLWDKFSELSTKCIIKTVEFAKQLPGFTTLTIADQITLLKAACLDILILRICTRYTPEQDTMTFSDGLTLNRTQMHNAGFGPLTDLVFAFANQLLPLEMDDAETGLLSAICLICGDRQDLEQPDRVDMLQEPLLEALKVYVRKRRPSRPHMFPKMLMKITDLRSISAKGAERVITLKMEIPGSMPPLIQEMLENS
Method: (§1) The activation of receptors with an agonist (activator) in HeLa cells leads to the expression of a reporter gene, luciferase, which, in the presence of a substrate, generates light. The activation of the receptors may thus be measured by quantifying the luminescence produced after incubating the cells in the presence of a reference agonist. The inhibitory products displace the agonist from its site, thus preventing activation of the receptor. The activity is measured by quantifying the reduction in light produced. This measurement makes it possible to determine the inhibitory activity of the compounds according to the invention.
(§2) Determination of the Kdapp:
(§3) In this study, a constant is determined which represents the affinity of the molecule for the receptor. Since this value can fluctuate depending on the basal activity and the expression of the receptor, it is referred to as the Kd apparent (KdApp).
(§4) To determine this constant, “crossed curves” of the test product against a reference agonist, 4-[2-(5,5,8,8-tetramethyl-5,6,7,8-tetrahydro-2-naphthyl)propenyl]benzoic acid, are performed in 96-well plates. The test product is used at 10 concentrations and the reference agonist at 7 concentrations. In each well, the cells are in contact with a concentration of the test product and a concentration of the reference agonist, 4-[2-(5,5,8,8-tetramethyl-5,6,7,8-tetrahydro-2-naphthyl)propenyl]benzoic acid. Measurements are also taken for the total agonist (4-[2-(5,5,8,8-tetramethyl-5,6,7,8-tetrahydro-2-naphthyl)propenyl]benzoic acid) and inverse agonist, 4-{(E)-3-[4-(4-tert-butylphenyl)-5,5,8,8-tetramethyl-5,6,7,8-tetrahydro-2-naphthyl]-3-oxopropenyl}benzoic acid, controls.
(§5) These crossed curves make it possible to determine the AC50 values (concentration at which 50% activation is observed) for the reference ligand at various concentrations of test product. These AC50 values are used to calculate the Schild regression by plotting a straight line corresponding to the Schild equation (“quantition in receptor pharmacology” Terry P. Kenakin, Receptors and Channels, 2001,7,371-385).
(§6) In the case of an antagonist, an IC50 value (concentration that inhibits 50% of the activity) is calculated by plotting the curve of the product at the concentration of the reference ligand that gives 80% activation.
(§7) The HeLa cell lines used are stable transfectants containing the plasmids ERE-βGlob-Luc-SV-Neo (reporter gene) and RAR (α, β, γ) ER-DBD-puro. These cells are inoculated into 96-well plates at a rate of 10 000 cells per well in 100 μl of DMEM medium without phenol red, and supplemented with 10% defatted calf serum. The plates are then incubated at 37° C. and 7% CO2 for 4 hours.
(§8) The various dilutions of the test products, of the reference ligand (4-[2-(5,5,8,8-tetramethyl-5,6,7,8-tetrahydro-2-naphthyl)propenyl]benzoic acid), of the 100% control (100 nM 4-[2-(5,5,8,8-tetramethyl-5,6,7,8-tetrahydro-2-naphthyl)propenyl]benzoic acid) and of the 0% control (500 nM 4-{(E)-3-[4-(4-tert-butylphenyl)-5,5,8,8-tetramethyl-5,6,7,8-tetrahydro-2-naphthyl]-3-oxopropenyl}benzoic acid) are added at a rate of 5 μl per well. The plates are then incubated for 18 hours at 37° C. and 7% CO2.
(§9) The culture medium is removed by turning over and 100 μl of a 1:1 PBS/luciferine mixture is added to each well. After 5 minutes, the plates are read using the luminescence detector.

[2] = target: T2, RAR BETA (Homo sapiens, UniProt P10826); test: Transactivation test (luciferase reporter, HeLa stable transfectants), RAR beta; settings: HeLa cells; for Kd: apparent Kd from Schild regression of crossed curves against reference agonist, read-out: RAR BETA Kd app; for IC50: inhibition at the reference agonist concentration that gives 80% activation
T2 sequence (P10826 183-455 limits assumed): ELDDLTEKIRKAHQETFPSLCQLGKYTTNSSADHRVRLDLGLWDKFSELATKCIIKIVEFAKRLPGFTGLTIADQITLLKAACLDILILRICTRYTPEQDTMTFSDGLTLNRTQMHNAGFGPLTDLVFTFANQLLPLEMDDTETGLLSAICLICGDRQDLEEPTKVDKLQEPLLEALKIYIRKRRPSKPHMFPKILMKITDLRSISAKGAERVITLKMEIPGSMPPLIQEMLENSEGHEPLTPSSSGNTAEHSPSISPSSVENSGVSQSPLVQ
Method: as §1, §2, §3, §4, §5, §6, §7, §8, §9

[3] = target: T3, RAR GAMMA (Homo sapiens, UniProt P13631); test: Transactivation test (luciferase reporter, HeLa stable transfectants), RAR gamma; settings: HeLa cells; for Kd: apparent Kd from Schild regression of crossed curves against reference agonist, read-out: RAR GAMMA Kd app; for IC50: inhibition at the reference agonist concentration that gives 80% activation
T3 sequence (P13631 185-454 limits assumed): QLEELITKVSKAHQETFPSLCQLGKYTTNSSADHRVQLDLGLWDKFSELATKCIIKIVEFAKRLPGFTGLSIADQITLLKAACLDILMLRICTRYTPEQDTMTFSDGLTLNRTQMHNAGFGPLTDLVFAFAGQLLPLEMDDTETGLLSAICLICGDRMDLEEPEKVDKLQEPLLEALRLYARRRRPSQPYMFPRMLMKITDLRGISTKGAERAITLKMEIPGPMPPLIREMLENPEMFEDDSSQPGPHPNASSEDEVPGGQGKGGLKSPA
Method: as §1, §2, §3, §4, §5, §6, §7, §8, §9

Row | Kd [1] [nM] | IC50 [1] [nM] | Kd [2] [nM] | IC50 [2] [nM] | Kd [3] [nM] | IC50 [3] [nM] | Structure (SMILES)
1 | 4000 | 7000 | 60 | 96 | 15 | 37.5 | Cc1ccc(-c2cc(C(O)C#Cc3ccc(C(=O)O)cc3)cc3c2C(C)(C)CCC3(C)C)cc1 (stereo not drawn) [Ex. 5, 4-[3-Hydroxy-3-(5,5,8,8-tetramethyl-4-p-tolyl-5,6,7,8-tetrahydro-2-naphthyl)-1-propynyl]benzoic Acid]
2 | 1 | 1.75 | 0.25 | 0.4 | 1 | 2.5 | Cc1ccc(-c2cc(C(=O)/C=C/c3ccc(C(=O)O)cc3)cc3c2C(C)(C)CCC3(C)C)cc1 [Ex. 7]
3 | 2 | 3.5 | 4 | 6.4 | 0.25 | 0.625 | CC(C)(C)c1ccc(-c2cc(C(=O)/C=C/c3ccc(C(=O)O)cc3)cc3c2C(C)(C)CCC3(C)C)cc1 [Ex. 8, 4-{(E)-3-[4-(4-tert-Butylphenyl)-5,5,8,8-tetramethyl-5,6,7,8-tetrahydro-2-naphthyl]-3-oxopropenyl}benzoic Acid]
4 | 250 | 437 | 500 | 800 | 30 | 75 | Cc1ccc(-c2cc(C(O)/C=C/c3ccc(C(=O)O)cc3)cc3c2C(C)(C)CCC3(C)C)cc1 (stereo not drawn) [Ex. 9, 4-[(E)-3-Hydroxy-3-(5,5,8,8-tetramethyl-4-p-tolyl-5,6,7,8-tetrahydro-2-naphthyl)propenyl]benzoic Acid]

Source: patent US7468457B2, “Ligand inhibitors of the RAR receptors, process for preparing same and therapeutic/cosmetic applications thereof” (Galderma Research & Development, priority 2002, dated 2008)
